US7977489B2, “Benzylthiazolone inhibitors of estrogen-related receptors (ERR)” (Exelixis, Inc., priority 2004, dated 2011)
pIC50: −log10 of the molar value.

Molecular target: T1, ERRα (Homo sapiens, UniProt P11474)
T1 construct: expressed in transfected cells; host or cells: CV-1 (African green monkey kidney) cells, transient transfection with CMX-GAL4-ERRα
T1 sequence (P11474 174-423): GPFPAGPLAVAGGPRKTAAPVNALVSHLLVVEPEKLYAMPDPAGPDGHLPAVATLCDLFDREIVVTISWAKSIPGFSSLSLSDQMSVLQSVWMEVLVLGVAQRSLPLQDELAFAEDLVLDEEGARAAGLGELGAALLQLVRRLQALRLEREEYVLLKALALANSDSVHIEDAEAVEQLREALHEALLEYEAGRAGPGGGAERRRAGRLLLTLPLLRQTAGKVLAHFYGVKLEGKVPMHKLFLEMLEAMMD
Assay: GAL4-ERRα co-transfection assay (luciferase reporter, CV-1 cells)
Format: cell-based
Settings: for Emax: CV-1, average percent inhibition of ERRα activity relative to control 3-[4-(2,4-Bis-trifluoromethyl-benzyloxy)-3-methoxy-phenyl]-2-cyano-N-(5-trifluoromethyl-[1,3,4]thiadiazol-2-yl)-acrylamide; for pIC50: average IC50 for inverse agonist activity in the GAL4-ERRα assay, CV-1 cells
Description: Compound activity was also determined in a cell based assay using a GAL4-ERRα chimera to identify active compounds.
CMX-GAL4-ERRα was constructed by cloning nucleotides encoding amino acids 174-423 of ERRα (see GenBank sequence XM048286) into the vector pCMX-GAL4 (Perlmann et al., 1993, Genes & Development 7:1411-1422) comprising nucleotides encoding for amino acids 1-147 of the GAL4 DNA binding domain.
The TK-MH100×4-Luc (GAL4UAS-TK-Luciferase) reporter constructs were constructed by insertion of four copies of the Gal4 UAS (Kang et al. 1993, J. Biol. Chem. 268:9629-9635) into the Hind III site of TK-Luc. The parental plasmid TK-Luc was prepared by insertion of the Herpes simplex virus thymidine kinase gene promoter (−105 to +51) obtained from the plasmid pBLCAT2 by digestion with HindIII and XhoI (described in Luckow et al., 1987, Nuc. Acid. Res. 15:5490) into the plasmid MTV-LUC described by Hollenberg and Evans, 1988, Cell 55:899-906) after removal of MTV-LTR promoter sequence from MTV-LUC via digestion with HindIII and XhoI. Correct cloning was confirmed by restriction digestion and or sequencing.
Assays were performed using CV-1 (African Green Monkey Kidney Cells) (ATCC) cells at 70 percent confluency in T175 flasks grown with media containing 10% charcoal/Dextran-treated fetal bovine serum. Cells were transiently transfected with a DNA mixture containing 12 μg of CMX-GAL4-ERRα (comprising the ligand binding domain), […] of TK-MH100×4-Luc, and 2 μg of CMX-βGal using the transfection reagent FuGENE6 (Roche Molecular Biochemicals, Indianapolis, Ind.) following recommended protocols and instructions provided by the manufacturer. Following incubation with transfection reagents for 5 hours at 37° C., cells were washed, removed from the flasks with 1× Trypsin-EDTA solution (Sigma-Aldrich, Inc. St. Louis, Mo., and then resuspended in media containing 5% charcoal/Dextran-treated fetal bovine serum to give a final concentration of 1.1×10^5 cells/ml.
Assay plates were prepared by dispensing approximately 5 μl of each compound into a well of a 384 well plate to achieve a final compound concentration of approximately 10 μM after addition of cells. Cells were added to assay plates (45 μl) via the use of a Multiprop dispenser (MTX Labs, Inc., Vienna, Va.). The assay plates containing both compounds and screening cells were incubated for approximately 20 hours at 37° C. and 5% CO2 in a tissue culture incubator.
After incubation of the transfected cells with compounds, Lysis buffer (1% Triton X-100, 10% Glycerol, 5 mM DTT, 1 mM EGTA, 25 mM Tricine) and Luciferin assay buffer (0.73 mM ATP, 22.3 mM Tricine, 0.11 mM EDTA, 33.3 mM DTT, 0.2M MgSO4, 11 mM Luciferin, 6.1 mM Coenzyme A, 0.01 mM HEPES) were prepared. Media was removed from the plates and lysis buffer and luciferin assay buffer mixed in a 1:1 ratio and then 30 μl was added to each well (384-well plate). Plates were read on the Northstar (Northstar Technologies, Inc., Acton, Mass.) and data was analyzed using ActivityBase (ID Business Solutions, Ltd., Guildford, Surrey, UK). Luciferase values were normalized with β-galactosidase values using the pCMX-βGal expression plasmid, to normalize for transfection efficiency as described previously (Willy et al., 1995, Gene & Development, 9:1033-1045).
No reporter-driven luciferase activity was observed without ERR transfection, indicating the ERR-dependency of the compounds.
The following table provides in vitro ERRα activity data of representative compounds described in the Examples. Average IC50 values for inverse agonist activity in the GAL4-ERRα assay are provided as follows: V: less than 0.5 μM; W: 0.5 μM-1 μM; X: 1 μM to 2 μM and Y: 2 μM to 5 μM. Average percent inhibition with respect to ERRα activity relative to a control (3-[4-(2,4-Bis-trifluoromethyl-benzyloxy)-3-methoxy-phenyl]-2-cyano-N-(5-trifluoromethyl-[1,3,4]thiadiazol-2-yl)-acrylamide) is provided as follows. […]

Row | SMILES | Emax [%] | pIC50
1 | COc1cc(C=C2SC(N3CC(C)OC(C)C3)=NC2=O)ccc1OCc1ccc(C(F)(F)F)cc1C(F)(F)F (stereo not shown) [5-[1-[4-(2,4-Bis-trifluoromethyl-benzyloxy)-3-methoxy-phenyl]-methylidene]-2-(2,6-dimethyl-morpholin-4-yl)-thiazol-4-one] | 100 to 120 | 5.70 to 6.00
2 | COc1cc(C=C2SC(N3CCCC3c3ccccn3)=NC2=O)ccc1OCc1ccc(C(F)(F)F)cc1C(F)(F)F (stereo not shown) [5-[1-[4-(2,4-Bis-trifluoromethyl-benzyloxy)-3-methoxy-phenyl]-methylidene]-2-(2-pyridin-2-yl-pyrrolidin-1-yl)-thiazol-4-one] | 100 to 120 | > 6.30
3 | CCCCCN1CCN(C2=NC(=O)C(=Cc3ccc(OCc4ccc(C(F)(F)F)cc4C(F)(F)F)c(OC)c3)S2)CC1 [5-[1-[4-(2,4-Bis-trifluoromethyl-benzyloxy)-3-methoxy-phenyl]-methylidene]-2-(4-pentyl-piperazin-1-yl)-thiazol-4-one] | 80 to 100 | 5.30 to 5.70
4 | COc1cc(C=C2SC(N3CCCC(c4nc5cc(C)ccc5[nH]4)C3)=NC2=O)ccc1OCc1ccc(C(F)(F)F)cc1C(F)(F)F (stereo not shown) [5-[1-[4-(2,4-Bis-trifluoromethyl-benzyloxy)-3-methoxy-phenyl]-methylidene]-2-[3-(5-methyl-1H-benzoimidazol-2-yl)-piperidin-1-yl]-thiazol-4-one] | 80 to 100 | 5.70 to 6.00
5 | COc1cc(C=C2SC(N3CCN(CC4CCN(C)CC4)CC3)=NC2=O)ccc1OCc1ccc(C(F)(F)F)cc1C(F)(F)F [5-[1-[4-(2,4-Bis-trifluoromethyl-benzyloxy)-3-methoxy-phenyl]-methylidene]-2-[4-(1-methyl-piperidin-4-ylmethyl)-piperazin-1-yl]-thiazol-4-one] | 80 to 100 | 6.00 to 6.30
6 | COc1cc(C=C2SC(N3CCN(Cc4ccc(Cl)cc4)CC3)=NC2=O)ccc1OCc1ccc(C(F)(F)F)cc1C(F)(F)F [5-[1-[4-(2,4-Bis-trifluoromethyl-benzyloxy)-3-methoxy-phenyl]-methylidene]-2-[4-(4-chloro-benzyl)-piperazin-1-yl]-thiazol-4-one] | 60 to 80 | 5.30 to 5.70
7 | COc1cc(C=C2SC(N3CCN(C)CC3)=NC2=O)ccc1OCc1ccc(C(F)(F)F)cc1C(F)(F)F [Example 18, 5-[1-[4-(2,4-Bis-trifluoromethyl-benzyloxy)-3-methoxy-phenyl]-methylidene]-2-(4-methyl-piperazin-1-yl)-thiazol-4-one] | 100 to 120 | > 6.30
8 | COc1cc(C=C2SC(N3CCOCC3)=NC2=O)ccc1OCc1ccc(C(F)(F)F)cc1C(F)(F)F [Example 19, 5-[1-[4-(2,4-Bis-trifluoromethyl-benzyloxy)-3-methoxy-phenyl]-methylidene]-2-morpholin-4-yl-thiazol-4-one] | 80 to 100 | 6.00 to 6.30
9 | COc1cc(C=C2SC(N3CCSCC3)=NC2=O)ccc1OCc1ccc(C(F)(F)F)cc1C(F)(F)F [Example 22, 5-[1-[4-(2,4-Bis-trifluoromethyl-benzyloxy)-3-methoxy-phenyl]-methylidene]-2-thiomorpholin-4-yl-thiazol-4-one] | 100 to 120 | 6.00 to 6.30
10 | COc1cc(C=C2SC(N3CCNCC3)=NC2=O)ccc1OCc1ccc(C(F)(F)F)cc1C(F)(F)F [Example 23, 5-[1-[4-(2,4-Bis-trifluoromethyl-benzyloxy)-3-methoxy-phenyl]-methylidene]-2-piperazin-1-yl-thiazol-4-one] | 100 to 120 | > 6.30
11 | COc1cc(C=C2SC(N3CCN(S(C)(=O)=O)CC3)=NC2=O)ccc1OCc1ccc(C(F)(F)F)cc1C(F)(F)F [Example 29, 5-[1-[4-(2,4-Bis-trifluoromethyl-benzyloxy)-3-methoxy-phenyl]-methylidene]-2-(4-methanesulfonyl-piperazin-1-yl)-thiazol-4-one] | 100 to 120 | > 6.30
